These results are taken from patent publication US11208412B2 (DAEGU-GYEONGBUK MEDICAL INNOVATION FOUNDATION, priority 2017, dated 2021).

Assay in all cases: Kinase selectivity, DiscoverX scanMAX Kinase assay panel (% control)
Holding throughout (format): binding

In assay [1] the target is T1, kinases of the scanMAX Kinase assay panel (Homo sapiens, UniProt O15075).
T1 construct: purchased DiscoverX Co. (contract measurement) scanMAX Kinase assay panel
The following applies: DCAMKL1; 1 uM. In a few lines: (§1)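 Compounds were tested at 1 uM (in DMSO) against each panel kinase. % control was calculated as (compound − positive control)/(negative control − positive control)×100, where the positive control gives 0% and DMSO gives 100%. Activity toward a kinase was called at % control <35%.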

In assay [2] the target is T2, kinases of the scanMAX Kinase assay panel (Homo sapiens, UniProt P00519, F317L).
T2 construct: purchased DiscoverX Co. (contract measurement) scanMAX Kinase assay panel
The following applies: 1 uM. A digest of the protocol:
as §1

The target in assay [3] is T3, kinases of the scanMAX Kinase assay panel (Homo sapiens, UniProt P00519, Q252H).
T3 construct: purchased DiscoverX Co. (contract measurement) scanMAX Kinase assay panel
The following applies: 1 uM. In a few lines: as §1

The target in assay [4] is T4, kinases of the scanMAX Kinase assay panel (Homo sapiens, UniProt P06239).
T4 construct: purchased DiscoverX Co. (contract measurement) scanMAX Kinase assay panel
The following applies: LCK; 1 uM. A digest of the protocol:
as §1

Assay [5] concerns the target T5, kinases of the scanMAX Kinase assay panel (Homo sapiens, UniProt P10721, T670I/V559D).
T5 construct: purchased DiscoverX Co. (contract measurement) scanMAX Kinase assay panel
The following applies: KIT(V559D, T670I); 1 uM. A digest of the protocol: as §1

The target of assay [6] is T6, kinases of the scanMAX Kinase assay panel (Homo sapiens, UniProt P11802).
T6 construct: purchased DiscoverX Co. (contract measurement) scanMAX Kinase assay panel
The settings on record: 1 uM. In a few lines: as §1

Assay [7] has as its target T7, kinases of the scanMAX Kinase assay panel (Homo sapiens, UniProt P49760).
T7 construct: purchased DiscoverX Co. (contract measurement) scanMAX Kinase assay panel
The settings on record: CLK2; 1 uM. A digest of the protocol: as §1

The target of assay [8] is T8, kinases of the scanMAX Kinase assay panel (Homo sapiens, UniProt Q08345).
T8 construct: purchased DiscoverX Co. (contract measurement) scanMAX Kinase assay panel
The settings on record: DDR1; 1 uM. In a few lines:
as §1

Assay [9] concerns the target T9, kinases of the scanMAX Kinase assay panel (Homo sapiens, UniProt Q16539).
T9 construct: purchased DiscoverX Co. (contract measurement) scanMAX Kinase assay panel
The settings on record: p38-alpha; 1 uM. In a few lines:
as §1

For assay [10], the target named is T10, kinases of the scanMAX Kinase assay panel (Homo sapiens, UniProt Q16566).
T10 construct: purchased DiscoverX Co. (contract measurement) scanMAX Kinase assay panel
T10 sequence (Q16566 1-473): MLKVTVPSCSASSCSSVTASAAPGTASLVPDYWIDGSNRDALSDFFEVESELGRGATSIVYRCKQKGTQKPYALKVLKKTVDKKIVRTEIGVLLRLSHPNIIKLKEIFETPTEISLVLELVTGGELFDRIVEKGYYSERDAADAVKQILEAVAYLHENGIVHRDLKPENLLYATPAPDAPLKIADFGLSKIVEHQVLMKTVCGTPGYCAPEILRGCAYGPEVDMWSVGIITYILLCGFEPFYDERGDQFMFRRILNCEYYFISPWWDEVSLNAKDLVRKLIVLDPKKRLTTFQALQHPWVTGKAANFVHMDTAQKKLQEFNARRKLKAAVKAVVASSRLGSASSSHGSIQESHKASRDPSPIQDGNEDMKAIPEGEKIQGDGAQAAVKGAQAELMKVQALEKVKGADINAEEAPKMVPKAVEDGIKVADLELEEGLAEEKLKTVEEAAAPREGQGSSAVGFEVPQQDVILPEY
The settings on record: CAMK4; 1 uM. In a few lines: as §1

In assay [11] the target is T11, kinases of the scanMAX Kinase assay panel (Homo sapiens, UniProt Q16832).
T11 construct: purchased DiscoverX Co. (contract measurement) scanMAX Kinase assay panel
T11 sequence (Q16832 22-855): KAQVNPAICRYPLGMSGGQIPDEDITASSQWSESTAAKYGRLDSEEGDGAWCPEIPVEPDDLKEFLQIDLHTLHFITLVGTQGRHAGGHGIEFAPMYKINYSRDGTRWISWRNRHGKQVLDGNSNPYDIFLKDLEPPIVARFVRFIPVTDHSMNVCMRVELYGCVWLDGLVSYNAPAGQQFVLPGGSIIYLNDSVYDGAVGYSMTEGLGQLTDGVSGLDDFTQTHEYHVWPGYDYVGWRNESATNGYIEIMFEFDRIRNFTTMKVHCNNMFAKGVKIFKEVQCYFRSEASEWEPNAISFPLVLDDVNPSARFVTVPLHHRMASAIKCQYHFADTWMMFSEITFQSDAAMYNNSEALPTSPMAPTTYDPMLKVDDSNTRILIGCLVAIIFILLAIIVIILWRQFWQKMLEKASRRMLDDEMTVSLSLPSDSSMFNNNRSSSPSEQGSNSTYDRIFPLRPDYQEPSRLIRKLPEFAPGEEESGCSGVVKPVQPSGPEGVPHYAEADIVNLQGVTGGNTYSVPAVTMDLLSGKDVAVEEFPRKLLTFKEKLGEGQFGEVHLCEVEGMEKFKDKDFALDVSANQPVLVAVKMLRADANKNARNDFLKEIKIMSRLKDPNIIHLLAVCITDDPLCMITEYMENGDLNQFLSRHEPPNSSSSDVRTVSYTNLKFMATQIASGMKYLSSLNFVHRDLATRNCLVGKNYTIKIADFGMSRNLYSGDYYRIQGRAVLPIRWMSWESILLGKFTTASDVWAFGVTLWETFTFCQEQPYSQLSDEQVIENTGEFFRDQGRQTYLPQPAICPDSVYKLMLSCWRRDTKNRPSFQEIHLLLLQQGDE
The settings on record: DDR2; 1 uM. A digest of the protocol: as §1

Assay [12] deals with T12, kinases of the scanMAX Kinase assay panel (Homo sapiens, UniProt Q86UX6).
T12 construct: purchased DiscoverX Co. (contract measurement) scanMAX Kinase assay panel
The following applies: kinase YANK3; 1 uM in DMSO. A digest of the protocol: as §1

Assay [13] has as its target T13, kinases of the scanMAX Kinase assay panel (Homo sapiens, UniProt Q8TDX7).
T13 construct: purchased DiscoverX Co. (contract measurement) scanMAX Kinase assay panel
The following applies: NEK7; 1 uM. In a few lines:
as §1

For assay [14], the target named is T14, kinases of the scanMAX Kinase assay panel (Homo sapiens, UniProt Q9BX84).
T14 construct: purchased DiscoverX Co. (contract measurement) scanMAX Kinase assay panel
The following applies: kinase TRPM6; 1 uM in DMSO. In a few lines:
as §1

T12 sequence (Q86UX6 whole entry): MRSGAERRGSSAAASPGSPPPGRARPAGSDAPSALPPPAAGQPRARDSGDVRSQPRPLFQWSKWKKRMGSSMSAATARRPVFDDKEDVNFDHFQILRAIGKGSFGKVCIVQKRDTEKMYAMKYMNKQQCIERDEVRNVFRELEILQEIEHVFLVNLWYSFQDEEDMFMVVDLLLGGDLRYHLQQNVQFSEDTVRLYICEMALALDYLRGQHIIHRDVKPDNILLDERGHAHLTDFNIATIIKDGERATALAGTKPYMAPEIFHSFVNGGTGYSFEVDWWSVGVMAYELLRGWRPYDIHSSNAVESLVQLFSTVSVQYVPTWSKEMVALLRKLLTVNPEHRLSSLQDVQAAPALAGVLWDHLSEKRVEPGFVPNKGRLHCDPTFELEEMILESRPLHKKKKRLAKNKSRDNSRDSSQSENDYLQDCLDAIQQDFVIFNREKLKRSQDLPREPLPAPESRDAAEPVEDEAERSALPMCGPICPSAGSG
T6 sequence (P11802 whole entry): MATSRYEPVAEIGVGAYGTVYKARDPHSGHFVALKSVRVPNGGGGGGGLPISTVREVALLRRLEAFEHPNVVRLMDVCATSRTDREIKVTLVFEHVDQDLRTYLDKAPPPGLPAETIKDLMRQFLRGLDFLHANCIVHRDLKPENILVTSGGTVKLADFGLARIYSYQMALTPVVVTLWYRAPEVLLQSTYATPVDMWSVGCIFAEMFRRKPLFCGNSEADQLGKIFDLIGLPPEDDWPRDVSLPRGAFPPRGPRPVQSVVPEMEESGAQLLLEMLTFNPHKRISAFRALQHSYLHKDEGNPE
T14 sequence (Q9BX84 whole entry): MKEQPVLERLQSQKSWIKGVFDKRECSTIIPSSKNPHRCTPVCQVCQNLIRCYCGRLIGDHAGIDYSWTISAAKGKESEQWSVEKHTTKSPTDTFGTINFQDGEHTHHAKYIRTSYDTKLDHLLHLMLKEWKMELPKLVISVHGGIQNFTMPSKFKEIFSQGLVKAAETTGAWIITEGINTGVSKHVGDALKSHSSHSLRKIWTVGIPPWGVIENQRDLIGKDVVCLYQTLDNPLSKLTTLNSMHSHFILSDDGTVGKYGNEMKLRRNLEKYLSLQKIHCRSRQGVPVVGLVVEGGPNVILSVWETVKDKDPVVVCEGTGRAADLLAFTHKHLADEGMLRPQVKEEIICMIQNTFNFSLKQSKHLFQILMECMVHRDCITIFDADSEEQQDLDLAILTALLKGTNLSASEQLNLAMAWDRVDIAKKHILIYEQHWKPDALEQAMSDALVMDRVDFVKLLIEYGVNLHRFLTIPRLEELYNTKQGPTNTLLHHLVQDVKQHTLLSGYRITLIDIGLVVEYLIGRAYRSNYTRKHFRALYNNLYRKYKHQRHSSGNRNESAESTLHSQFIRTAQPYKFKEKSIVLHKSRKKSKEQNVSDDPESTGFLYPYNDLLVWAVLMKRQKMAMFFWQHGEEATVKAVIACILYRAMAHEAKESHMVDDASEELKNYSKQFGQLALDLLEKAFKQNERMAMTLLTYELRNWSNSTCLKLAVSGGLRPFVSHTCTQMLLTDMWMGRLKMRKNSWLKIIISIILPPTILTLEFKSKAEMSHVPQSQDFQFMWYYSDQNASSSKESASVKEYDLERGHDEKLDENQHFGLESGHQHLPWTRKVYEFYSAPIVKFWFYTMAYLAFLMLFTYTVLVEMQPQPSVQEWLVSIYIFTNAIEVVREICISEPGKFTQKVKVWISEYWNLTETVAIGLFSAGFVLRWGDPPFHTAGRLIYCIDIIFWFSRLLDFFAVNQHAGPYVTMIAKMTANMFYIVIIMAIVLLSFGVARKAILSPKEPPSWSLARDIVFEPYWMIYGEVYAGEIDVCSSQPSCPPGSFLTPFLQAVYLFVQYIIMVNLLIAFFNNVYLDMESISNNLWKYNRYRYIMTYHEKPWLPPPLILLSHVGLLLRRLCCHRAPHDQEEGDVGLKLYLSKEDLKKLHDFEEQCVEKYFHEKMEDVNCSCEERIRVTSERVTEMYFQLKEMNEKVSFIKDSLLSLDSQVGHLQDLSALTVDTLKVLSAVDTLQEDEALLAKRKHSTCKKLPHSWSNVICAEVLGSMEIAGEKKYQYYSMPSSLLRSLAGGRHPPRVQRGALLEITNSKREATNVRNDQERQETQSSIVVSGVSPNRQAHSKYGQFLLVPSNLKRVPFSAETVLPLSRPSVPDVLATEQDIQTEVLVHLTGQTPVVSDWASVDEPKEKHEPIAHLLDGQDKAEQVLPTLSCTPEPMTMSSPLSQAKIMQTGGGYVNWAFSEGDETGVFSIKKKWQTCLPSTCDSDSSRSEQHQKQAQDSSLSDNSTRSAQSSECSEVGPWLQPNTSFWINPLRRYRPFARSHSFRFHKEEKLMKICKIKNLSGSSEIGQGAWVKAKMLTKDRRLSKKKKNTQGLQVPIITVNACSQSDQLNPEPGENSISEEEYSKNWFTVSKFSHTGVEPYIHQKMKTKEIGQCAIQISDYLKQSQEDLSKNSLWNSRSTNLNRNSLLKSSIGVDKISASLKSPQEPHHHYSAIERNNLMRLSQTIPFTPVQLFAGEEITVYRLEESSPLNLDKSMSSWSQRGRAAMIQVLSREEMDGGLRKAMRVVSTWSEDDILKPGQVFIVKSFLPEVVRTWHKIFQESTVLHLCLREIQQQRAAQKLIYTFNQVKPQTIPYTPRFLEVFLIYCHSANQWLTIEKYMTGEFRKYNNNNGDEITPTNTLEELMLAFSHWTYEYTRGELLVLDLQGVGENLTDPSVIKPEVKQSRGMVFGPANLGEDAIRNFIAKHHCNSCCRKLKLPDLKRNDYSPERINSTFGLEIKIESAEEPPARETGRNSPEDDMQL
T1 sequence (O15075 whole entry): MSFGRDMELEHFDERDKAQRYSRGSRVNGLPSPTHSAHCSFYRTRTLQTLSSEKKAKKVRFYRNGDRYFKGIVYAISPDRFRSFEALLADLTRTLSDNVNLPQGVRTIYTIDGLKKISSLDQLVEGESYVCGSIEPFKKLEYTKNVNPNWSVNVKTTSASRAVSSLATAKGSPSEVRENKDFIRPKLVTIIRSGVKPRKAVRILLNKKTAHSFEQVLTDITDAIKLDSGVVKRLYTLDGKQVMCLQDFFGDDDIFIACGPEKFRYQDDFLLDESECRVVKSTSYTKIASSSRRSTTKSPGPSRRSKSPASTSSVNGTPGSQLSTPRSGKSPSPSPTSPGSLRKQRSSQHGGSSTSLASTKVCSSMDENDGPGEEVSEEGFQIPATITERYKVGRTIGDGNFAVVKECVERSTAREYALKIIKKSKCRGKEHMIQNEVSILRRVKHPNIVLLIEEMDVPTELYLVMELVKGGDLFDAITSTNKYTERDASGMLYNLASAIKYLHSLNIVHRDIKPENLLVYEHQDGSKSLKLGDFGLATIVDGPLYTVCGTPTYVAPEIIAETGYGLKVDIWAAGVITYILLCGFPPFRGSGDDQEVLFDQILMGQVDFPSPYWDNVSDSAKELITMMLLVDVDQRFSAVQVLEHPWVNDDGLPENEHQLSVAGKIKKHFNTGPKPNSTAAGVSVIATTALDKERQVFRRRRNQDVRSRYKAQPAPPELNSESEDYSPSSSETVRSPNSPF
T4 sequence (P06239 whole entry): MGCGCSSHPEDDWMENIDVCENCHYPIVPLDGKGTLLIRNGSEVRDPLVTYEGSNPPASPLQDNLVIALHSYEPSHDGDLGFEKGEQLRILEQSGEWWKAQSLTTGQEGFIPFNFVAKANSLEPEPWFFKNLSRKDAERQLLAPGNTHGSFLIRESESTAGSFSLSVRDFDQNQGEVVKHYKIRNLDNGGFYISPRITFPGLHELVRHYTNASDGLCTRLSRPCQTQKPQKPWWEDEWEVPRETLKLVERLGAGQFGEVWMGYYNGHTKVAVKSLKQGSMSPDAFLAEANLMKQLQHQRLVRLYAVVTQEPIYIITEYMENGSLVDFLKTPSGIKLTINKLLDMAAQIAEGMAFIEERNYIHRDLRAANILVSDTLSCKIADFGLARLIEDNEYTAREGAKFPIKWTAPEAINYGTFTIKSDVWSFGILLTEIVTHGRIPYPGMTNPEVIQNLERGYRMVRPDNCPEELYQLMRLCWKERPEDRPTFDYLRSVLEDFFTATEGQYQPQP
T8 sequence (Q08345 19-913): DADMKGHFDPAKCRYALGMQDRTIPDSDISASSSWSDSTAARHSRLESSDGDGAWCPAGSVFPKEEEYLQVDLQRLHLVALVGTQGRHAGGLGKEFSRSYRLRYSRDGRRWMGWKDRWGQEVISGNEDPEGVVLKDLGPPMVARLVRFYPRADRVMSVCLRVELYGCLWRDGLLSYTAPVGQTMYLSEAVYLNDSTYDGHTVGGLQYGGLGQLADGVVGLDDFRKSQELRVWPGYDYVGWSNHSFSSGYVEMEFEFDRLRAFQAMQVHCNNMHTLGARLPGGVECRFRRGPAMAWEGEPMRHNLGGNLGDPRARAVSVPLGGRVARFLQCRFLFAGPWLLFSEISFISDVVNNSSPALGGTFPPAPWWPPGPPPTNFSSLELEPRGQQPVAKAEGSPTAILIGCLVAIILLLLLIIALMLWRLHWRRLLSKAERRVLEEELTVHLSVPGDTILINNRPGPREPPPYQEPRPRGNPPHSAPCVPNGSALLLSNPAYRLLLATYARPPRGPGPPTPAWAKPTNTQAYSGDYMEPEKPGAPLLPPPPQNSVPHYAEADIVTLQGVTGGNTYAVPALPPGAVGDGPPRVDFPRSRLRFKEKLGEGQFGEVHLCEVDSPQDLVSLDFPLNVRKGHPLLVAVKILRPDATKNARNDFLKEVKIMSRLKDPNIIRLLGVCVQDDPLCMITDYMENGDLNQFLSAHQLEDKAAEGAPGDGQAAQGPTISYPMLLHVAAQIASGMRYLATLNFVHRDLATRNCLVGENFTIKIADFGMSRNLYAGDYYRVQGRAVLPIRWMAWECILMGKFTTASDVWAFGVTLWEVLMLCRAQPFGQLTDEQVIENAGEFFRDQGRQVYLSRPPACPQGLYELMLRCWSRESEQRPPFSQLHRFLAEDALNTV

For the compound `CNc1nc(Nc2ccc(C(=O)N3CCOCC3)cc2OC)nc2[nH]cc(C#N)c12` [Example 1, 2-((2-methoxy-4-(morpholine-4-carbonyl)phenyl)amino)-4-(methylamino)-7H-pyrrolo[2,3-d]pyrimidine-5-carbonitrile], the remaining binding at 1 µM worked out at 57% in [1]; 91% in assay [2] (ABL1(F317L)-nonphosphorylated); 48% in assay [2] (ABL1(F317L)-phosphorylated); 57% in [3] (ABL1(Q252H)-nonphosphorylated); 100% in [3] (ABL1(Q252H)-phosphorylated); 100% in assay [4]. The remaining binding at 1 µM is 73% in [5]; 74% in assay [6] (CDK4-cyclinD1); 96% in assay [6] (CDK4-cyclinD3); 61% in [6] (CDK4); 5.9% in assay [7]; 94% in assay [8]. The remaining binding at 1 µM was determined as 94% in assay [9]; 99% in [10]; 96% in assay [11]; 100% in assay [12]; 100% in assay [13]; 88% in assay [14].

`CC1(Nc2nc(Nc3cnn([C@H]4CCN(C5COC5)C[C@@H]4F)c3Cl)nc3[nH]cc(C#N)c23)CC1` [Example 52, 2-((5-chloro-1-((3S,4S)-3-fluoro-1-(oxetane-3-yl)piperidine-4-yl)-1H-pyrazole-4-yl)amino)((1-methylcyclopropyl)amino)-7H-pyrrolo[2,3-d]pyrimidine-5-carbonitrile]: the remaining binding at 1 µM amounted to 34% in assay [1]; 16% in assay [2] (ABL1(F317L)-nonphosphorylated); 0% in assay [2] (ABL1(F317L)-phosphorylated); 1.1% in assay [3] (ABL1(Q252H)-nonphosphorylated); 0.25% in assay [3] (ABL1(Q252H)-phosphorylated); 19% in assay [4]. Also, the remaining binding at 1 µM came out at 0.4% in [5]; 59% in assay [6] (CDK4-cyclinD1); 100% in [6] (CDK4-cyclinD3); 100% in assay [6] (CDK4); 2.6% in assay [7]; 50% in [8]. Besides, the remaining binding at 1 µM in assay [9] amounted to 91%; in assay [10] it was 55%; in assay [11], 20%; in assay [12], 100%; in assay [13], 97%; in assay [14], 93%.

As to `CCNc1nc(Nc2ccc(C(=O)N3CCC(N4CCOCC4)CC3)cc2OC)nc2[nH]cc(C(F)(F)F)c12` [Example 104, (4-((4-(ethylamino)-5-(trifluoromethyl)-7H-pyrrolo[2,3-d]pyrimidine-2-yl)amino)-3-methoxyphenyl)(4-morpholinopiperidine-1-yl)methanone], the remaining binding at 1 µM in [1] is 49%; in assay [2] (ABL1(F317L)-nonphosphorylated) it was 74%; in assay [2] (ABL1(F317L)-phosphorylated), 35%; in assay [3] (ABL1(Q252H)-nonphosphorylated), 99%; in assay [3] (ABL1(Q252H)-phosphorylated), 82%; in [4] it was 100%. Besides, the remaining binding at 1 µM in assay [5] came out at 87%; in assay [6] (CDK4-cyclinD1), 55%; in assay [6] (CDK4-cyclinD3), 53%; in assay [6] (CDK4), 100%; in [7], 0.9%; in [8], 100%. Further, the remaining binding at 1 µM in assay [9] worked out at 96%; in assay [10], 27%; in assay [11], 100%; in assay [12], 65%; in assay [13] it was 94%; in assay [14] it was 98%.
